Laboratory results taken from ChEMBL document CHEMBL5528039, “Discovery of a Macrocyclic Influenza Cap-Dependent Endonuclease Inhibitor” (J Med Chem, 2024).

Tests used:
A-375 = assay: Cytotoxicity against human A-375 cells incubated for 3 days by CellTiter-Glo assay; format: functional; details: A-375, 72 h, time 3 day
[1] = Half-life in cynomolgus monkey at 0.25 mg/kg, iv measured after 24 hrs by LC-MS/MS analysis; format: ADME, organism-based, Macaca fascicularis; details: in vivo
COLO 205 = assay: Cytotoxicity against human COLO 205 cells incubated for 3 days by CellTiter-Glo assay; format: functional; details: COLO 205, 72 h, time 3 day
Influenza B virus [2] = assay: Antiviral activity against Influenza B virus B/Florida/78/2015 infected in MDCK cells assessed as reduction in virus-induced cytopathic effect incubated for 5 days by CCK8 based microplate spectrophotometric analysis; format: functional, organism-based; details: B/Florida/78/2015, MDCK, 120 h; for EC90: time 5 day
[3] = Metabolic stability in cynomolgus monkey liver microsomes assessed as intrinsic clearance at 1 uM measured upto 60 mins in presence of NADPH by LC-MS/MS analysis; format: ADME, Macaca fascicularis, Microsome; details: 1 h
[4] = AUC (0 to last) in BALB/c mouse at 2 mg/kg, iv measured after 24 hrs by LC-MS/MS analysis; format: ADME, organism-based; details: in vivo
HEK293 = assay: Cytotoxicity against HEK293 cells incubated for 3 days by CellTiter-Glo assay; format: functional; details: Homo sapiens, HEK293, 72 h; time 3 day
Influenza A virus [5] = assay: Antiviral activity against Influenza A virus A/PR/8/34 (H1N1) infected in MDCK cells assessed as reduction in virus-induced cytopathic effect incubated for 5 days by CCK8 based microplate spectrophotometric analysis; format: functional, organism-based; details: 120 h; for EC90: time 5 day
[6] = Protein binding in mouse plasma assessed as unbound fraction at 400 uM incubated for 4 hrs by LC-MS/MS analysis; format: ADME, cell-free
MRC5 = assay: Cytotoxicity against human MRC5 cells incubated for 3 days by CellTiter-Glo assay; format: functional; details: MRC5, 72 h, time 3 day
Influenza B virus [7] = assay: Potency index, ratio of baloxavir EC50 to test compound EC50 for antiviral activity against Influenza B virus B/Florida/78/2015 infected in MDCK cells assessed as reduction in virus-induced cytopathic effect incubated for 5 days by CCK8 based microplate spectrophotometric analysis; format: functional; details: time 5 day
HepG2 = assay: Cytotoxicity against human HepG2 cells incubated for 3 days by CellTiter-Glo assay; format: functional; details: HepG2, 72 h, time 3 day
[8] = Clearance in Beagle dog at 0.25 mg/kg, iv measured after 24 hrs by LC-MS/MS analysis; format: ADME, organism-based, Canis lupus familiaris; details: in vivo
[9] = Metabolic stability in dog liver microsomes assessed as intrinsic clearance at 1 uM measured upto 60 mins in presence of NADPH by LC-MS/MS analysis; format: ADME, Canis lupus familiaris, Microsome; details: 1 h
Influenza B virus [10] = assay: Antiviral activity against Influenza B virus B/Lee/40 infected in MDCK cells assessed as reduction in virus-induced cytopathic effect incubated for 5 days by CCK8 based microplate spectrophotometric analysis; format: functional, organism-based; details: B/Lee/40, MDCK, 120 h; for EC90: time 5 day
[11] = Volume of distribution at steady state in cynomolgus monkey at 0.25 mg/kg, iv measured after 24 hrs by LC-MS/MS analysis; format: ADME, organism-based, Macaca fascicularis; details: in vivo, read-out: Vdss
[12] = Clearance in cynomolgus monkey at 0.25 mg/kg, iv measured after 24 hrs by LC-MS/MS analysis; format: ADME, organism-based, Macaca fascicularis; details: in vivo
Influenza A virus [13] = assay: Antiviral activity against Influenza A virus A/California/07/2009 (H1N1) infected in MDCK cells assessed as reduction in virus-induced cytopathic effect incubated for 5 days by CCK8 based microplate spectrophotometric analysis; format: functional, organism-based; details: 120 h; for EC90: time 5 day
[14] = Metabolic stability in human liver microsomes assessed as intrinsic clearance at 1 uM measured upto 60 mins in presence of NADPH by LC-MS/MS analysis; format: ADME, Microsome; details: 1 h
Influenza B virus [15] = assay: Potency index, ratio of baloxavir EC50 to test compound EC50 for antiviral activity against Influenza B virus B/Lee/40 infected in MDCK cells assessed as reduction in virus-induced cytopathic effect incubated for 5 days by CCK8 based microplate spectrophotometric analysis; format: functional; details: time 5 day
[16] = Metabolic stability in mouse liver microsomes assessed as intrinsic clearance at 1 uM measured upto 60 mins in presence of NADPH by LC-MS/MS analysis; format: ADME, Microsome; details: 1 h
Influenza A virus [17] = assay: Antiviral activity against Influenza A virus A/California/2/2014 (H3N2) infected in MDCK cells assessed as reduction in virus-induced cytopathic effect incubated for 5 days by CCK8 based microplate spectrophotometric analysis; format: functional, organism-based; details: 120 h; for EC90: time 5 day
CCRF-CEM = assay: Cytotoxicity against human CCRF-CEM cells incubated for 3 days by CellTiter-Glo assay; format: functional; details: 72 h, time 3 day
[18] = Half-life in BALB/c mouse at 2 mg/kg, iv measured after 24 hrs by LC-MS/MS analysis; format: ADME, organism-based; details: in vivo
MOLT-4 = assay: Cytotoxicity against human MOLT-4 cells incubated for 3 days by CellTiter-Glo assay; format: functional; details: MOLT-4, 72 h, time 3 day
[19] = Volume of distribution at steady state in Beagle dog at 0.25 mg/kg, iv measured after 24 hrs by LC-MS/MS analysis; format: ADME, organism-based, Canis lupus familiaris; details: in vivo, read-out: Vdss
[20] = Selectivity index, ratio of CC50 for human MOLT-4 cells to EC50 for antiviral activity against Influenza B virus B/Lee/40 infected in MDCK cells; format: functional
[21] = Clearance in BALB/c mouse at 2 mg/kg, iv measured after 24 hrs by LC-MS/MS analysis; format: ADME, organism-based; details: in vivo
[22] = Protein binding in dog plasma assessed as unbound fraction at 400 uM incubated for 4 hrs by LC-MS/MS analysis; format: ADME, cell-free, Canis lupus familiaris
[23] = Inhibition of influenza A virus A/WSN/33 (H1N1) RNA polymerase transfected in HEK293T/17 cells incubated for 24 hrs by dual luciferase reporter gene assay; format: cell-based; details: HEK293T/17, 24 h
[24] = Protein binding in human plasma assessed as unbound fraction at 400 uM incubated for 4 hrs by LC-MS/MS analysis; format: ADME, cell-free
[25] = Half-life in Beagle dog at 0.25 mg/kg, iv measured after 24 hrs by LC-MS/MS analysis; format: ADME, organism-based, Canis lupus familiaris; details: in vivo
[26] = Protein binding in cynomolgus monkey plasma assessed as unbound fraction at 400 uM incubated for 4 hrs by LC-MS/MS analysis; format: ADME, cell-free, Macaca fascicularis
[27] = AUC (0 to last) in cynomolgus monkey at 0.25 mg/kg, iv measured after 24 hrs by LC-MS/MS analysis; format: ADME, organism-based, Macaca fascicularis; details: in vivo
H1-HeLa = assay: Cytotoxicity against human H1-HeLa cells incubated for 3 days by CellTiter-Glo assay; format: functional; details: 72 h, time 3 day
[28] = Volume of distribution at steady state in BALB/c mouse at 2 mg/kg, iv measured after 24 hrs by LC-MS/MS analysis; format: ADME, organism-based; details: in vivo, read-out: Vdss
HEp-2 = assay: Cytotoxicity against human HEp-2 cells incubated for 3 days by CellTiter-Glo assay; format: functional; details: HEp-2, 72 h, time 3 day
[29] = AUC (0 to last) in Beagle dog at 0.25 mg/kg, iv measured after 24 hrs by LC-MS/MS analysis; format: ADME, organism-based, Canis lupus familiaris; details: in vivo

CN1C(=O)c2c(O)c(=O)ccn2N2[C@H](c3ccccc3)c3cc(F)c(F)cc3OCC[C@@H]12
CC50 (A-375): 13300 nM
half-life [1]: 2.2 h
CC50 (COLO 205): 7040 nM
EC50 (Influenza B virus [2]): 0.9 nM
EC90 (Influenza B virus [2]): 1.6 nM
CLH [3]: < 0.013 mL/min/kg
AUC(0-t) at 24 h [4]: 1.32 µM·h
CC50 (HEK293): 20300 nM
EC50 (Influenza A virus [5]): 7.2 nM
EC90 (Influenza A virus [5]): 12 nM
fraction unbound at 4 h, 400 µM [6]: 0.122
CC50 (MRC5): 20000 nM
Ratio EC50 (Influenza B virus [7]): 3
CC50 (HepG2): 5190 nM
clearance [8]: 20.8 mL/min/kg
CLH [9]: 0.0138 mL/min/kg
EC50 (Influenza B virus [10]): 8.5 nM
EC90 (Influenza B virus [10]): 16 nM
Vd [11]: 3.68 L/kg
clearance [12]: 20.8 mL/min/kg
EC50 (Influenza A virus [13]): 2.6 nM
EC90 (Influenza A virus [13]): 4.2 nM
CLint [14]: < 8.6 µL/min/mg
Ratio EC50 (Influenza B virus [15]): 3
CLH [16]: 0.1106 mL/min/kg
EC50 (Influenza A virus [17]): 1.2 nM
EC90 (Influenza A virus [17]): 3.2 nM
CC50 (CCRF-CEM): 6480 nM
half-life [18]: 1.2 h
CC50 (MOLT-4): 4130 nM
Vd [19]: 3.74 L/kg
Ratio CC50/EC50 [20]: >485
clearance [21]: 57.4 mL/min/kg
fraction unbound at 4 h, 400 µM [22]: 0.218
EC50 [23]: 12.3 nM
fraction unbound at 4 h, 400 µM [24]: 0.103
half-life [25]: 2.6 h
fraction unbound at 4 h, 400 µM [26]: 0.382
AUC(0-t) at 24 h [27]: 0.458 µM·h
CC50 (H1-HeLa): 9770 nM
Vd [28]: 4.41 L/kg
CC50 (HEp-2): 12400 nM
AUC(0-t) at 24 h [29]: 0.576 µM·h

CN1C(=O)c2c(O)c(=O)ccn2N2[C@H](c3ccc(F)cc3)c3cc(F)c(F)cc3OCC[C@@H]12
EC50 (Influenza A virus [5]): 14 nM
EC90 (Influenza A virus [5]): 24 nM

CN1C(=O)c2c(O)c(=O)ccn2N2C(c3ccccc3)c3ccccc3OCCC12 (racemic)
EC50 (Influenza A virus [5]): > 1000 nM
EC90 (Influenza A virus [5]): > 1000 nM

CN1C(=O)c2c(O)c(=O)ccn2N2[C@H](c3ccccc3F)c3cc(F)c(F)cc3OCC[C@@H]12
EC50 (Influenza A virus [5]): 11 nM
EC90 (Influenza A virus [5]): 16 nM

O=C1c2c(O)c(=O)ccn2N([C@@H]2c3ccccc3SCc3c2ccc(F)c3F)[C@@H]2COCCN12 [BALOXAVIR]
EC50 (Influenza B virus [2]): 4.8 nM
EC90 (Influenza B virus [2]): 7.4 nM
AUC(0-t) at 24 h [4]: 1.35 µM·h
EC50 (Influenza A virus [5]): 2.1 nM
EC90 (Influenza A virus [5]): 4.6 nM
fraction unbound at 4 h, 400 µM [6]: 0.153
EC50 (Influenza B virus [10]): 21 nM
EC90 (Influenza B virus [10]): 43 nM
EC50 (Influenza A virus [13]): 1.4 nM
EC90 (Influenza A virus [13]): 3 nM
CLint [14]: < 8.6 µL/min/mg
EC50 (Influenza A virus [17]): 1.2 nM
EC90 (Influenza A virus [17]): 1.8 nM
half-life [18]: 3.9 h
clearance [21]: 61.6 mL/min/kg
EC50 [23]: 5.46 nM
fraction unbound at 4 h, 400 µM [24]: 0.083
Vd [28]: 14 L/kg

CN1C(=O)c2c(O)c(=O)ccn2N2[C@@H](c3ccccc3)c3ccccc3OCC[C@H]12
EC50 (Influenza A virus [5]): > 500 nM
EC90 (Influenza A virus [5]): > 500 nM

CN1C(=O)c2c(O)c(=O)ccn2N2[C@H](c3ccccc3)c3ccc(F)c(F)c3OCC[C@@H]12 (racemic)
EC50 (Influenza A virus [5]): 50 nM
EC90 (Influenza A virus [5]): 93 nM
